Test results from patent publication US12721934B2, “Cationic nanodrug, preparation method therefor, and drug-loaded implantable medical device” (SHANGHAI MICROPORT MEDICAL (GROUP) CO., LTD., priority 2019, dated 2026).

System: Vascular smooth muscle cells (SMCs)
Experiment: Cytotoxicity of the cationic substances (MTT)
Type: cell-based
Procedure: Vascular smooth muscle cells (SMCs) were collected and the cell concentration was determined using a hemocytometer. The cell concentration was adjusted to […] using a liquid cell culture medium. The cell suspension was dispensed on a 96-well plate ([…] cells in each well) and the wells were divided into groups (a control group and four test groups), four wells for each group. After the cells were cultivated for 24 hours under regular cell culture conditions, the culture medium was pipetted away. Each of the fresh culture media and culture media respectively containing the suspensions of non-drug loaded nanoparticles prepared in Example 14, Comparative Example 2 and Comparative Example 3 was added (the cationic substance in each of the three examples has a same concentration). After the cells were further cultivated for 24 hours, 50 μL of an MTT agent was dispensed into each well, and the cells were then incubated for 4 hours in a CO2 incubator. After that, the culture media were carefully pipetted away, and 150 μL of dimethyl sulfoxide was added to each well. The plate was then shaken gently to facilitate dissolution of formazan. Absorbance of each well at 490 nm was measured using a microplate reader, and cell survival rates were calculated according to: […]

Row | Compound | Cytotoxicity (in words)
1 | CCCCCCCC/C=C\CCCCCCCC(=O)OCC(C[N+](C)(C)C)OC(=O)CCCCCCC/C=C\CCCCCCCC.[Cl-] (centres unmarked) [DOTAP, 1,2-dioleoyl-3-trimethylammonium-propane chloride] | does not show noticeable cytotoxicity
2 | CCCCCCCCCCCC[N+](C)(C)CCCCCCCCCCCC.[Br-] [DMAB, didodecyldimethylammonium bromide] | serious cytotoxicity
